For assay [1], the system named is large bowel cancer cells SW480 (K-RasG12V). Kind of assay: Cell growth inhibition, adherent cells SW480. The assay is classed as cell-based. Particulars: Homo sapiens, 72 hours, read-out: SW480 (KRasG12V) % inhibition at 10 μM. As to the method:
The cell growth inhibitory activity of the compound of the present invention on human culture cells having active-type mutation in Ras was evaluated by the below-mentioned method using suspension cancer cells {acute lymphoblastic leukemia cells CCRF-CEM (K-RasG12D), promyelocytic leukemia cells HL60 (N-RasQ61L), acute lymphoblastic leukemia cells MOLT4 (N-RasG12C), and small cell lung cancer cells SHP77 (K-RasG12V)} and adherent cancer cells {large bowel cancer cells SW480 (K-RasG12V) and large bowel cancer cell SW620 (K-RasG12V)}.
(Case of adherent cells) The cells suspended in a medium containing 10% FBS (1 to 2×10^4 cells/well) were seeded on a 96-well plate, and were then cultured at 37° C. in the presence of […]. Thereafter, the medium was exchanged with a medium containing […], to which each compound solution (final DMSO concentration: […]) had been added, and the cells were then cultured at 37° C. in the presence of […] for 72 hours.
(§1) Thereafter, the number of viable cells was measured using Cell Counting Reagent (Nacalai Tesque) in accordance with the manufacturer's instructions. Inhibition by the test compound was determined according to the following equation: […]

Assay [2] addresses GTPγS-bound human HRasG12V / human c-Raf-1 Ras binding domain (RBD) (Homo sapiens (Human), UniProt P01112, G12V). Put plainly: Ras-Raf binding inhibition ELISA. Particulars: anti-HRas antibody C-20; read-out: ELISA IC50 (μM): 1st Ab_C-20. Put shortly:
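GST-c-Raf-1 RBD (aa 50-131) immobilized on glutathione plates, then GTPγS-loaded full-length HRasG12V added with compound (final 10% DMSO), 1 h at 30 °C, pH 7.4 Tris buffer. Bound Ras detected by anti-HRas antibody (C-20 or 259) and HRP secondary, TMB read at OD450; IC50 from inhibition.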
A general note: In an ELISA, binding on a coated surface is turned into a signal by an enzyme label.

The test system of assay [3] is Vemurafenib-resistant malignant melanoma cells HT 144R (BRafV600E). Put plainly: Cell growth inhibition, drug-resistant malignant melanoma HT144R. The settings on record: Homo sapiens, in the presence of 1 μM PLX (Vemurafenib), 72 hours. The assay is classed as cell-based. The method, then: The human malignant melanoma cell lines A375 and HT 144, each having BRafV600E mutation, were cultured in a medium containing 10% FBS at 37° C. in the presence of 5% CO2. At the time point in which the cells became confluent, 1 μM Vemurafenib, a BRaf inhibitor, was added to the medium, and the cells were then cultured in the presence of Vemurafenib for 1 month or more (during which the medium was exchanged every 1 week), so as to acquire Vemurafenib-resistant malignant melanoma cells A375R and HT 144R. The resulting resistant cells were suspended in a medium containing 10% FBS, and then seeded on a 96-well plate to an amount of 1 to 2×10^4 cells/well. The cells were cultured at 37° C. in the presence of 5% CO2 overnight. Thereafter, the medium was exchanged with a medium containing 0.5% FBS, to which each compound solution (final DMSO concentration: 1%) and 1 μM Vemurafenib had been added, and the cells were then cultured at 37° C. in the presence of 5% CO2 for 72 hours.
as §1
Hereafter, Inhibition (%) by 3.3 μM compound is shown.

Chain of GTPγS-bound human HRasG12V / human c-Raf-1 Ras binding domain (RBD) (P01112 whole entry G12V, the tested form may be a part): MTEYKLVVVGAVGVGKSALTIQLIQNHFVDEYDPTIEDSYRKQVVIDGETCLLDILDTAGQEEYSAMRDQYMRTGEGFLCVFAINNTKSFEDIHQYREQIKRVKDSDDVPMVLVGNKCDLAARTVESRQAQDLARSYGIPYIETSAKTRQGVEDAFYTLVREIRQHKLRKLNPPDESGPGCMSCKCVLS

As usually defined, the inhibition is the relative decrease from the control value, in per cent. One may read the IC50 as the concentration that gives 50% inhibition. Regarding `CC(=O)N1/C(=C\c2nc3cc(C(=O)N4CCOCC4)ccc3s2)C(=O)c2ccccc21` [Example 47, (Z)-1-acetyl-2-((5-(morpholine-4-carbonyl)benzo [d]thiazol-2-yl)-methylene)-indolin-3-one], in assay [1], the inhibition at 10 µM came to 51%. Also, the IC50 in assay [2] worked out at 3.9 µM. Further, the inhibition at 3.3 µM in assay [3] turned out to be 92%.

The record behind these values is US20250091994A1, “RAS/RAF BINDING INHIBITOR COMPOUND” (NATIONAL UNIVERSITY CORPORATION KOBE UNIVERSITY, priority 2021, published 2025).
